Test results published in publication PMC10675340, “Preparation, Radiolabeling with ^68Ga/^177Lu and Preclinical Evaluation of Novel Angiotensin Peptide Analog: A New Class of Peptides for Breast Cancer Targeting” (Pharmaceuticals, 2023).
Where two headings read alike, the source gives them in different places. Where a SMILES comes first, the peptide text is derived from it. [ ]: non-standard residue; d: D form. The star is where a group is joined. DOTA = O=C(O)CN1CCN(CC(=O)O)CCN(CC(=O)*)CCN(CC(=O)O)CC1; βAla = NCCC(=O)O

Legend:
Parameters in all cases: species or system mouse
[1] = In vivo tumor targeting and biodistribution in nude mice bearing MDA-MB-231 xenografts; conditions: mouse, total radioactivity
Method: (with 43% wash away from the tumors over 2 h). The amount of radioactivity found for the ^68Ga-labeled AngII peptide analog in the tumors was always more than the radioactivity detected in the blood and muscle. A general pattern of better tumor-to-blood and tumor-to-muscle uptake ratios was noticed over time for ^68Ga-labeled AngII peptide.
In vivo, tumor uptake was conducted as reported previously. In summary, ~5 million MDA-MB-231 cells in 200 µL sterile PBS were implanted subcutaneously into each nude mouse. Once tumor growth became sufficient (~50–500 mg), tumor uptake and organ biodistribution were carried out after injecting the radiolabeled AngII peptide. The percent of the injected dose per gram in the tumors was determined by using a custom-designed Quattro Pro X9 spreadsheet (Corel Corporation, Austin, TX, USA).

[2] = In vivo biodistribution in normal Balb/c mice; conditions: female, mouse, iv, total radioactivity, normal Balb/c mice, i.v. tail vein, mean ± SD, n = 4-6
Method: (§1) The in vivo biodistribution of ^68Ga-labeled AngII peptide analog was carried out in female Balb/c mice, at various time points, to observe the uptake in the normal tissues and organs and find the excretion route of the radiolabeled peptides. […] Low uptake and retention of the radiopeptide in the liver varying from 1.54 ± 0.28% ID/g at 45 min to 0.48 ± 0.17% ID/g at 2 h p.i. is probably related to the high hydrophilicity (log p = −0.55 ± 0.11) of the ^68Ga-labeled AngII peptide analog. […] The efficient clearance from the kidneys is possibly associated with the urinary excretion of the radiopeptide. […] The low amount of uptake in the bone (up to 0.37 ± 0.14% ID/g) (Table 2) indicates the minimal breakdown of the ^68Ga-labeled AngII peptide complex in vivo combined with the minor release of free ^68Ga. These findings are in agreement with the high in vitro metabolic stability observed in the human plasma for the radiolabeled AngII peptide. The accumulation in the extremely vascular organ lungs was also low (up to 1.11 ± 0.37% ID/g) signifying a low trapping by the lungs.
(§2) Approval from the Institutional Animal Care and Use Committee was obtained for the animal protocol used. Additionally, strict international regulations govern the safe and proper use of laboratory animals employed during animal experiments. In vivo, biodistribution was performed on healthy female mice according to the methods essentially described previously. In summary, Balb/c mice (n = 5 per time point, body mass 20–25 g) at 45 min and 2 h were administered with the HPLC-purified AngII peptide (~1 µg, 100 µL, 0.925–1.85 MBq; 25–50 µCi) via lateral tail vein injection. At the specified time points, the animals were sacrificed by cervical dislocation. A fraction of the blood was collected from cardiac puncture. Urine was also collected and measured with the bladder contents. Major organs, such as the lungs, pancreas, stomach, liver, heart, kidneys, and intestines were isolated, weighed, and measured for radioactivity. The uptake values of the radiolabeled peptide in different organs are expressed as the percent injected dose per gram (% ID/g) of tissue/organ. The radioactivity in the urine with bladder contents is shown as the percent of the injected dose per organ (% ID/organ). To calculate the injected dose, a standard (20-fold dilution of injected dose) was prepared and counted together with animal tissue samples.

Balb/c mice = assay: In vivo biodistribution in normal Balb/c mice; conditions: normal Balb/c mice, 45 min and 2 h p.i.
Method: as §1, §2

tissue uptake at 2 h ([1]; stomach, nude mice with MDA-MB-231 xenografts, 2 h p.i., mean ± SD, n = 4-6, read-out: Stomach uptake): 0.3 ± 0.08 %ID/g | tissue uptake at 0.75 h ([1]; tumor (MDA-MB-231 xenograft), MDA-MB-231 tumor in nude mice, 45 min p.i., mean ± SD, n = 4-6, read-out: Tumor uptake): 2.18 ± 0.66 %ID/g | tissue uptake at 2 h ([1]; tumor (MDA-MB-231 xenograft), MDA-MB-231 tumor in nude mice, 2 h p.i., unblocked, mean ± SD, n = 4-6, read-out: Tumor uptake): 1.25 ± 0.37 %ID/g | tissue to tissue ratio at 2 h ([1]; tumor / muscle, nude mice with MDA-MB-231 xenografts, 2 h p.i., read-out: Tumor/muscle uptake ratio): 6.58 | tissue to tissue ratio at 0.75 h ([1]; tumor/blood, nude mice with MDA-MB-231 xenografts, 45 min p.i., read-out: Tumor/blood uptake ratio): 3.96 | tissue to tissue ratio at 2 h ([1]; tumor/blood, nude mice with MDA-MB-231 xenografts, 2 h p.i., read-out: Tumor/blood uptake ratio): 5.68 | tissue to tissue ratio at 0.75 h ([1]; tumor/muscle, nude mice with MDA-MB-231 xenografts, 45 min p.i., read-out: Tumor/muscle uptake ratio): 5.45 | dose excreted at 0.75 h ([1]; urine with bladder contents, nude mice with MDA-MB-231 xenografts, 45 min p.i., mean ± SD, n = 4-6, read-out: Urine + Bladder (urinary excretion)): 49.9 ± 10.9% | dose excreted at 2 h ([1]; urine with bladder contents, nude mice with MDA-MB-231 xenografts, 2 h p.i., mean ± SD, n = 4-6, read-out: Urine + Bladder (urinary excretion)): 55 ± 8.79% | tissue uptake at 0.75 h ([2]; blood, 45 min p.i., read-out: Blood uptake): 0.85 ± 0.24 %ID/g | tissue uptake at 2 h ([2]; blood, 2 h p.i., read-out: Blood uptake): 0.61 ± 0.15 %ID/g | tissue uptake at 0.75 h ([2]; heart, 45 min p.i., read-out: Heart uptake): 1.39 ± 0.51 %ID/g | tissue uptake at 2 h ([2]; heart, 2 h p.i., read-out: Heart uptake): 0.99 ± 0.26 %ID/g | tissue uptake at 0.75 h ([2]; intestines without contents, 45 min p.i., read-out: Intestines uptake (portion without contents)): 1.45 ± 0.39 %ID/g | tissue uptake at 2 h ([2]; intestines without contents, 2 h p.i., read-out: Intestines uptake (portion without contents)): 1 ± 0.28 %ID/g | tissue uptake at 0.75 h ([2]; kidneys, 45 min p.i., read-out: Kidneys uptake): 9.95 ± 3.39 %ID/g | tissue uptake at 2 h ([2]; kidneys, 2 h p.i., read-out: Kidneys uptake): 3.78 ± 1.46 %ID/g | tissue uptake at 0.75 h ([2]; liver, 45 min p.i., read-out: Liver uptake): 1.54 ± 0.28 %ID/g | tissue uptake at 2 h ([2]; liver, 2 h p.i., read-out: Liver uptake): 0.48 ± 0.17 %ID/g | tissue uptake at 0.75 h ([2]; lungs, 45 min p.i., read-out: Lungs uptake): 1.11 ± 0.37 %ID/g | tissue uptake at 2 h ([2]; lungs, 2 h p.i., read-out: Lungs uptake): 0.6 ± 0.2 %ID/g | tissue uptake at 2 h ([2]; muscle/bone, 2 h p.i., read-out: Muscle/bone uptake): 0.28 ± 0.1 %ID/g | tissue uptake at 0.75 h ([2]; pancreas, 45 min p.i., read-out: Pancreas uptake): 0.5 ± 0.11 %ID/g | tissue uptake at 2 h ([2]; pancreas, 2 h p.i., read-out: Pancreas uptake): 0.33 ± 0.06 %ID/g | tissue uptake at 0.75 h ([2]; spleen, 45 min p.i., read-out: Spleen uptake): 0.51 ± 0.1 %ID/g | tissue uptake at 2 h ([2]; spleen, 2 h p.i., read-out: Spleen uptake): 0.31 ± 0.09 %ID/g | tissue uptake at 0.75 h ([2]; stomach, 45 min p.i., read-out: Stomach uptake): 1.06 ± 0.41 %ID/g | tissue uptake at 2 h ([2]; stomach, 2 h p.i., read-out: Stomach uptake): 0.81 ± 0.23 %ID/g | dose excreted at 0.75 h ([2]; urine with bladder contents, 45 min p.i., read-out: Urine + Bladder (urinary excretion)): 67 ± 8.9% | dose excreted at 2 h ([2]; urine with bladder contents, 2 h p.i., read-out: Urine + Bladder (urinary excretion)): 80 ± 12.9% | Radioactivity in the whole intestines (with contents) (Balb/c mice): up to 2.97 % ID/g
SMILES: CC[C@H](C)[C@H](NC(=O)[C@H](Cc1ccc(O)cc1)NC(=O)[C@@H](NC(=O)[C@H](CCCNC(=N)N)NC(=O)[C@H](CC(=O)O)NC(=O)CCNC(=O)[C@H](CCCCN)NC(=O)CN1CCN(CC(=O)O)CCN(CC(=O)O)CCN(CC(=O)O)CC1)C(C)C)C(=O)N[C@@H](Cc1c[nH]cn1)C(=O)N1CCC[C@H]1C(=O)N[C@@H](Cc1ccccc1)C(=O)N[C@@H](Cc1c[nH]c2ccccc12)C(=O)N[C@@H](CCCCN)C(=O)N[C@@H](Cc1ccc(O)cc1)C(N)=O [^68Ga-DOTA-AngII peptide, metal not drawn] ({DOTA}-K[βAla]DRVYIHPFWKY-NH2)
